From publication PMC6100056, “Antitumor Effects and Delivery Profiles of Menahydroquinone-4 Prodrugs with Ionic or Nonionic Promoiety to Hepatocellular Carcinoma Cells” (Molecules : A Journal of Synthetic Chemistry and Natural …, 2018) come the findings set out here.

In one data set the test system is PLC/PRF/5 cells. Nature of the data set: Uptake of MKH-ester derivatives in HCC cells (Michaelis-Menten kinetics). The format is in vitro ADME. As to conditions: for Vmax (uptake of MKH-ester): PLC/PRF/5 cells, Michaelis-Menten fit, 95% confidence interval in square brackets. Here is the method:
(§1) To assess the uptake of the intrinsic MKH-ester derivatives as the first step of MKH delivery into HCC cells, the velocities of uptake of MKH-ester derivatives were plotted and fitted with the Michaelis--Menten model (as shown in Figure 3), and the calculated kinetic parameters were determined (Table 1). All three derivatives increased in both PLC/PRF/5 and SK-Hep-1 cells in a dose-dependent manner. The uptake of MKH-SUC was clearly higher than that of MKH-DMG and MKH-ACT at all concentrations examined. The ratio of the […] (Vmax/Km) for MKH-SUC was about 5- to 10-fold higher than those for MKH-ACT and MKH-DMG in both cell lines.
(§2) HCC cells were plated at 1.5 × 10^5 cells/well in 6-well plates and allowed to attach for 48 h. Cells were cultured in medium containing MK-4, MKH-ACT, MKH-DMG or MKH-SUC for various intervals. After the drug exposure, media were removed, and cells were washed three times with PBS. Cells were collected in 1 mL of PBS and sonicated. The cell homogenates were combined with an equal volume of methanol and three times volume of n-hexane, vortexed for 2 min and centrifuged at 1750× g for 10 min. The organic layer was evaporated under N2 gas. The residue was reconstituted with 100 μL of methanol, sonicated for 10 s and subjected to LC-UV or LC-MS/MS analysis, as described below. The protein concentration of the cell homogenate was determined using a BCA protein assay kit.
(§3) The LC system was the same as that described in the 4.8.1 LC-MS/MS section, and the UV detector was a Prominence SPD-20A (Shimadzu Corp., Kyoto, Japan). Separations were performed on the same column mentioned in the 4.8.1 LC-MS/MS section and monitored at a wavelength of 240 nm. The mobile flow was a binary gradient: (A) 0.1% acetic acid in water and (B) 0.1% acetic acid in methanol. The total flow rate was 0.3 mL/min; 0 min at 80% B, 1 min at 80% B, 4.0 min at 100% B, 7.0 min at 100% B and 8.0 min at 80% B. The Column temperature was 40 °C. The retention times were as follows: MKH-DMG, 9.2 min; MKH-ACT, 8.2 min; and MKH-SUC, 6.6 min.
(§4) For the determination of Km and Vmax for the uptake and enzymatic activation of MKH-esters, concentration-dependency data were fit to the Michaelis--Menten equation:V = Vmax·[S]/(Km + [S])(1) where V represents the velocity of action between the substrate and transportation/enzymatic reaction, [S] refers to the concentration of the substrate and Km is defined as the concentration of substrate at the half-maximal rate of action (Vmax). Data were analyzed by GraphPad Prism (GraphPad Software).

For the next data set, the system named is SK-Hep-1 cells. The description is as above. Format: in vitro ADME. As to conditions: Michaelis-Menten fit, 95% confidence interval in square brackets. On the procedure: as §1, §2, §3, §4
Assay in data set [1]: as above
The format is in vitro ADME. As to conditions: human, Michaelis-Menten fit, 95% confidence interval in square brackets. Here is the method: as §1, §2, §3, §4

Data set [2] relates to cyclin D1 and CDK4 in PLC/PRF/5 cells. Kind of data set: Western blotting of cell cycle regulatory proteins. Format: cell-based. The note with it: 24 h after treatment. Here is the method:
We previously reported that MKH-DMG regulates cell cycle-related proteins as a mechanism of MKH-DMG-induced growth inhibition in PLC/PRF/5, Hep3B and SK-Hep-1 cells. Thus, to clarify the mechanisms of the growth inhibition induced by the MKH-ester prodrugs, we analyzed cell cycle-related proteins using Western blotting (Figure 7).
HCC cells were plated at 1.5 × 10^5 cells/well in 6-well plates and allowed to attach for 48 h. Cells were treated with MK-4, MKH-ACT, MKH-DMG or MKH-SUC for 24 h. Western blotting was performed as described previously.
A general note: Immunoblotting shows a protein as a band on a membrane.

The next data set deals with esterase. Nature of the data set: Regeneration (hydrolysis) of MKH-ester derivatives to MKH in S9 fractions. Format: in vitro ADME. The note with it: human, pH 7.4, 37 °C, Michaelis-Menten fit, 95% confidence interval in square brackets. On the procedure:
To assess the regeneration to the parental form, MKH, from the MKH-ester derivatives by an esterase of HCC, MKH-ACT, MKH-DMG and MKH-SUC were incubated at 37 °C in S9 fractions obtained from PLC/PRF/5 or SK-Hep-1 cells. The velocities of MK-4 generated in the S9 fractions were plotted as the amount of MKH, because MKH is rapidly oxidized to MK-4 during drug extraction and measurement. The regeneration versus […] profile was fitted by the Michaelis--Menten model (shown in Figure 4) and the kinetic parameters were calculated (Table 2). The regeneration velocities of MKH-ACT in both PLC/PRF/5 and SK-Hep-1 cells reached a plateau at about 3 μM MKH-ACT. MKH-DMG reached a plateau in PLC/PRF/5 and SK-Hep-1 cells at 25 μM and about 6 μM MKH-DMG, respectively. MKH-SUC reached a plateau in PLC/PRF/5 and SK-Hep-1 cells at about 0.6 μM and about 1.5 μM MKH-SUC, respectively. The level scale of MKH regeneration from MKH-SUC was about 100-fold higher than those of MKH-ACT and MKH-DMG.
The hydrolysis of the esters was performed at 37 °C in S9 fractions of PLC/PRF/5 and SK-Hep-1 cells after ultrasonic homogenization and centrifugation (10,000× g, 1 h) in isotonic phosphate buffer (pH 7.4). Stock solutions of each ester were made in the same manner as the cell viability assay, and the solutions were diluted with 0.1% w/v albumin in PBS. The enzymatic reactions were initiated by adding 5 μL of the diluted of each ester into amber test tubes containing 95 μL of preheated S9 fractions. A BCA protein assay (PIERCE/Thermo Fisher Scientific Inc., Waltham, MA, USA) was used to determine protein concentrations, and the final S9 concentration was adjusted to 1.0 mg of protein/mL in PBS. The solutions were incubated at 37 °C, and at appropriate times, the aliquots from the reaction were combined with an equal volume of methanol and three times volume of n-hexane. The samples were vortexed for 2 min and centrifuged at 1750× g for 10 min. The upper layer (n-hexane) was collected and evaporated under nitrogen. The residue was reconstituted with 100 μL of methanol, sonicated for 10 s and subjected to LC-MS/MS analysis as described below.
The LC-MS/MS analysis was performed with the same instrument under the same conditions as in an earlier report, except for the following MS/MS-multiple reaction monitoring (MRM) setting and retention times: MRM: m/z 532→171, [M + H]^+ MKH-ACT adduct; m/z 664→187, [M + NH4]^+ MKH-SUC adduct; retention times: MKH-ACT, 1.7 min; and MKH-SUC, 1.1 min.
as §4

The mark [3] stands for this setting: PLC/PRF/5 cells (HCC cell line), PLC/PRF/5 cells.
[4] abbreviates: S9 fraction of PLC/PRF/5 cells, S9 of PLC/PRF/5 cells.
The mark [5] stands for this setting: S9 fraction of SK-Hep-1 cells, S9 of SK-Hep-1 cells.

Structures can show the parent of a compound that is named as a salt.

Usually Km stands for the substrate concentration at which the rate is half of its maximum. In the case of `CC(=O)Oc1c(C)c(C/C=C(\C)CC/C=C(\C)CC/C=C(\C)CCC=C(C)C)c(OC(C)=O)c2ccccc12` [MKH-ACT, Menahydroquinone-4 1,4-bis acetate], the “Vmax (uptake of MKH-ester)” value with PLC/PRF/5 cells was 2.76 [1.70 to 3.81] nmol·mg of Protein^−1·h^−1; in the data set on SK-Hep-1 cells it was 20.3 [−9.47 to 50.0] nmol·mg of Protein^−1·h^−1. For the same molecule, the Michaelis-Menten constant (Km) in data set [1] (setting [3]) is 31.9 µM; in data set [1] (SK-Hep-1 cells (HCC cell line)) it was 227 µM; with esterase (setting [4]), 1.42 µM; with esterase (setting [5]) it was 1.32 µM. Besides, the “Effect on cyclin D1 and CDK4 expression compared with controls” value (from here on “Effect … compared with controls”) in data set [2] is “did not affect”.

As to `CC(C)=CCC/C(C)=C/CC/C(C)=C/CC/C(C)=C/Cc1c(C)c(OC(=O)CN(C)C)c2ccccc2c1OC(=O)CN(C)C` [MKH-DMG, Menahydroquinone-4 1,4-bis-N,N-dimethylglycinate hydrochloride], the “Vmax (uptake of MKH-ester)” value in the data set with PLC/PRF/5 cells was 28.9 [−4.27 to 62.1] nmol·mg of Protein^−1·h^−1; with SK-Hep-1 cells, 62.6 [4.69 to 121] nmol·mg of Protein^−1·h^−1. Besides, the Michaelis constant (Km) was 447 µM in data set [1] (setting [3]), 556 µM in data set [1] (SK-Hep-1 cells (HCC cell line)), 13.6 µM in the data set with esterase (setting [4]) and 3.24 µM in the data set on esterase (setting [5]). In addition, the “Effect … compared with controls” value in data set [2] is on record as “clearly suppressed”.

In the case of `CC(C)=CCC/C(C)=C/CC/C(C)=C/CC/C(C)=C/Cc1c(C)c(OC(=O)CCC(=O)O)c2ccccc2c1OC(=O)CCC(=O)O` [MKH-SUC, Menahydroquinone-4 1,4-bis hemisuccinate], the figures for the “Vmax (uptake of MKH-ester)” value in the data set with PLC/PRF/5 cells and in the data set on SK-Hep-1 cells were 345 [84.0 to 606] nmol·mg of Protein^−1·h^−1 and 261 [74.7 to 448] nmol·mg of Protein^−1·h^−1, respectively. Moreover, in the data set with PLC/PRF/5 cells (in both cell lines (PLC/PRF/5 and SK-Hep-1)), the “Vmax/Km of uptake, higher than those for MKH-ACT and MKH-DMG” value is given as 5- to 10 fold. In addition, the Km came to 712 µM in data set [1] (setting [3]), 381 µM in data set [1] (SK-Hep-1 cells (HCC cell line)), 0.399 µM with esterase (setting [4]) and 0.74 µM in the data set on esterase (setting [5]). Moreover, in data set [2], the “Effect … compared with controls” value is on record as “clearly suppressed”.
